Experimental data published in patent US11420958B2, “Aryl and heteroaryl substituted indole compounds” (BRISTOL-MYERS SQUIBB COMPANY, priority 2017, dated 2022).

Assays:
Assay type in all cases: cell-based
human TLR9 = human TLR9 (Homo sapiens (Human), UniProt Q9NR96); assay: TLR9 inhibition reporter assay (HEK-Blue, SEAP); conditions: HEK-Blue cells overexpressing human TLR9, ODN2006 5 nM stimulation
In short: (§1)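 Percent inhibition of agonist-induced SEAP secretion was scored against DMSO-only and reference-inhibitor controls. Stimulation lasted 22 h at 37 °C following 30 min compound pre-exposure (0.05 nM–50 μM); ligands were gardiquimod 7.5 μM, R848 15.9 μM and ODN2006 5 nM for TLR7, 8 and 9.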

human TLR8 = human TLR8 (Homo sapiens (Human), UniProt Q9NR97); assay: TLR8 inhibition reporter assay (HEK-Blue, SEAP); conditions: HEK-Blue cells overexpressing human TLR8, R848 15.9 μM stimulation
human TLR8, sequence (Q9NR97 27-1041): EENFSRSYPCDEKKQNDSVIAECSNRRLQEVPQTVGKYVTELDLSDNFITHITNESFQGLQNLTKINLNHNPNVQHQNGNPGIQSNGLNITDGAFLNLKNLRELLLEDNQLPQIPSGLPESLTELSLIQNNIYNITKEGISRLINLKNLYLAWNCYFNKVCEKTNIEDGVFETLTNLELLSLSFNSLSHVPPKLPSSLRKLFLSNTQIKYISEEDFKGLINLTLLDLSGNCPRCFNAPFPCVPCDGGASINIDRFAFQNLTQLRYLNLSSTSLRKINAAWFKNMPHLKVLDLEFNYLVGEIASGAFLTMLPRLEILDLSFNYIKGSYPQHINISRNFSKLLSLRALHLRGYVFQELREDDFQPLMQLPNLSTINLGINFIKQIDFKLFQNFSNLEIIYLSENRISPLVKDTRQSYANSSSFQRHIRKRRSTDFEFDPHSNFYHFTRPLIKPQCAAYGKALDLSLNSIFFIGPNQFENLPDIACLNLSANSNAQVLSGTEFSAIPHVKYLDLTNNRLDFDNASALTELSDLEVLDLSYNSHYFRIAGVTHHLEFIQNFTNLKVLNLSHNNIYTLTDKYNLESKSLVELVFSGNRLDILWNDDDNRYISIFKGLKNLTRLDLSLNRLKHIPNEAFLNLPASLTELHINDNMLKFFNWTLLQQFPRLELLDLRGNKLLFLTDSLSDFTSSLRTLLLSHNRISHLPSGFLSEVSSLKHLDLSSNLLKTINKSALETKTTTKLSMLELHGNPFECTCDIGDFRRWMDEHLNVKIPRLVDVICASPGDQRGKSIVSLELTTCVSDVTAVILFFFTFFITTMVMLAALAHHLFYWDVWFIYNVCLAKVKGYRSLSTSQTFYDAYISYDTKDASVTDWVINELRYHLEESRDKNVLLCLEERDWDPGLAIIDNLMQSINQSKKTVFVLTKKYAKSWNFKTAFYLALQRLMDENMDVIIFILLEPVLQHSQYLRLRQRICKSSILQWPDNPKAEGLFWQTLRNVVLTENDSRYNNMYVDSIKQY
In short: as §1

human TLR7 = human TLR7 (Homo sapiens (Human), UniProt Q9NYK1); assay: TLR7 inhibition reporter assay (HEK-Blue, SEAP); conditions: HEK-Blue cells overexpressing human TLR7, gardiquimod 7.5 μM stimulation
human TLR7, sequence (Q9NYK1 27-1049): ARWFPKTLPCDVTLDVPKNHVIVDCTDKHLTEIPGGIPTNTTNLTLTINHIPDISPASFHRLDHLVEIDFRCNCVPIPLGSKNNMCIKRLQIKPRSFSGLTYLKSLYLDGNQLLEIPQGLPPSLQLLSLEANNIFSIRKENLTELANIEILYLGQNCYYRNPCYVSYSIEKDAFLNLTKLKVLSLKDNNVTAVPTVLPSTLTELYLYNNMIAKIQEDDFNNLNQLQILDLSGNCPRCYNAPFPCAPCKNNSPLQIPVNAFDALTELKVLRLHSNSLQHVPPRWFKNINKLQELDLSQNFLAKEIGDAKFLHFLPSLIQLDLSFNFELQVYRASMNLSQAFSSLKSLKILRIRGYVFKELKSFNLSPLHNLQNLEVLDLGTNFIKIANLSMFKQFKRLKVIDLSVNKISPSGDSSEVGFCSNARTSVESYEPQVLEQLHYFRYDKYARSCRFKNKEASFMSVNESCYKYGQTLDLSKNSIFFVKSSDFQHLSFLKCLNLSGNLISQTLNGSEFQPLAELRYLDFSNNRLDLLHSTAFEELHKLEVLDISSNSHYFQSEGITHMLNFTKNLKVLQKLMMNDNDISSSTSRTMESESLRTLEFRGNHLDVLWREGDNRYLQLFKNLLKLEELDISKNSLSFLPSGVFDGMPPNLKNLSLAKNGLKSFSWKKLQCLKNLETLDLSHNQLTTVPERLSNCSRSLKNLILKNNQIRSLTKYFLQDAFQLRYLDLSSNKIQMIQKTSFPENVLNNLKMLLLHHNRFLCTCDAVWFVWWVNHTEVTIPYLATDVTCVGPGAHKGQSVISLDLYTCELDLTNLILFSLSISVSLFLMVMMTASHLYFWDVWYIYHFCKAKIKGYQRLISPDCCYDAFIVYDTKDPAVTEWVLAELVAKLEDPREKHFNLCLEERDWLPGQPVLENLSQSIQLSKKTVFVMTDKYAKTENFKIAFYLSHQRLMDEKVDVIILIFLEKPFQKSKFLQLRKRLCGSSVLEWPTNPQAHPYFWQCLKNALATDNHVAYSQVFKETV
In short: as §1

human TLR9, sequence (Q9NR96 26-1032): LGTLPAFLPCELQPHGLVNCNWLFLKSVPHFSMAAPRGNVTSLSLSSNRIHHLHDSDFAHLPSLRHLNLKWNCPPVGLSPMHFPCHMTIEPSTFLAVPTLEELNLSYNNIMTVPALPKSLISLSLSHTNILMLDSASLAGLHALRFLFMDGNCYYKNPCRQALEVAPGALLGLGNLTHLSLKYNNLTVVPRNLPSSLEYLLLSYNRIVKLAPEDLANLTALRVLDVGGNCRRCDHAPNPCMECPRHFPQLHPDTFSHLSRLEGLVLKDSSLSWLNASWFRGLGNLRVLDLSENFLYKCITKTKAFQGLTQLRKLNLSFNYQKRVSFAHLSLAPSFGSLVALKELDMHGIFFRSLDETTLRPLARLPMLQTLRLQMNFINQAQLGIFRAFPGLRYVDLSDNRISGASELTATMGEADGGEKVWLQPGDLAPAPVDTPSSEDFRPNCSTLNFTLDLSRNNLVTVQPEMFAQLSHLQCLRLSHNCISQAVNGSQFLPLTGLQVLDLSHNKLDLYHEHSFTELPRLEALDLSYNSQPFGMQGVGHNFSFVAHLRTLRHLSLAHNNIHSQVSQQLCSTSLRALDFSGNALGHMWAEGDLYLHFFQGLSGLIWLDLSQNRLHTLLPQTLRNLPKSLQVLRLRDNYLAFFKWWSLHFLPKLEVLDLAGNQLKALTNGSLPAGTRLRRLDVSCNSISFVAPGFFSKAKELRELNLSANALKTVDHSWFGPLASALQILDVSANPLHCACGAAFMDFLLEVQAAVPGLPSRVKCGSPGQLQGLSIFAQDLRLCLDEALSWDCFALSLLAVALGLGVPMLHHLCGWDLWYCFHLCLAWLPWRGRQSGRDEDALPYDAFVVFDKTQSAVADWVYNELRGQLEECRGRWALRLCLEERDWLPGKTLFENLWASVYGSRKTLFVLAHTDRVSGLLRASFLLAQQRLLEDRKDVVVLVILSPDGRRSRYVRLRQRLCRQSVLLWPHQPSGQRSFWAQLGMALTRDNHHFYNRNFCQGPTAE

SMILES | IC50 (human TLR9) [µM] | IC50 (human TLR8) [µM] | IC50 (human TLR7) [µM]
FC(F)Cc1c(-c2ccnc3[nH]ncc23)[nH]c2ccc(-c3nnc([C@@H]4CCCNC4)o3)cc12 [Example 243, (R)-2-(3-(2,2-difluoroethyl)-2-(1H-pyrazolo[3,4-b]pyridin-4-yl)-1H-indol-5-yl)-5-(piperidin-3-yl)-1,3,4-oxadiazole] | 3.26 | 1.3 | 2.28
CC(C)c1c(-c2ccc3nccn3c2)[nH]c2ccc(-c3nnc(C(=O)NC4CCN(C(C)C)CC4)o3)cc12 [Example 241, 5-(2-(imidazo[1,2-a]pyridin-6-yl)-3-isopropyl-1H-indol-5-yl)-N-(1-isopropylpiperidin-4-yl)-1,3,4-oxadiazole-2-carboxamide] | 0.306 | 0.043 | 0.043
Cc1cc(-c2[nH]c3ccc(-c4nnc([C@@H]5CCCN5)o4)cc3c2C(C)C)ccn1 [Example 261, (S)-2-(3-isopropyl-2-(2-methylpyridin-4-yl)-1H-indol-5-yl)-5-(pyrrolidin-2-yl)-1,3,4-oxadiazole] | 6.28 | 0.0045 | 0.162
CC(C)c1c(-c2ccnc3[nH]ncc23)[nH]c2ccc(-c3nnc(C4CCCN(C)C4)o3)cc12 (stereo not drawn) [Example 168, 2-(3-isopropyl-2-(1H-pyrazolo[3,4-b]pyridin-4-yl)-1H-indol-5-yl)-5-(1-methylpiperidin-3-yl)-1,3,4-oxadiazole] | 1.08 | 0.0019 | 0.081
Cc1cc(-c2[nH]c3ccc(-c4nnc(Cc5nnn[nH]5)o4)cc3c2C(C)C)ccn1 [Example 76, 2-((1H-tetrazol-5-yl)methyl)-5-(3-isopropyl-2-(2-methylpyridin-4-yl)-1H-indol-5-yl)-1,3,4-oxadiazole] | > 50 | 0.481 | 1.9
Cc1cc(-c2[nH]c3ccc(-c4cnc(C5CCNCC5)s4)cc3c2C(C)C)ccn1 [Example 199, 5-(3-isopropyl-2-(2-methylpyridin-4-yl)-1H-indol-5-yl)-2-(piperidin-4-yl)thiazole] | 1.1 | 0.0049 | 0.037
COc1ccc(-c2[nH]c3ccc(-c4nnc([C@H]5CCCNC5)o4)cc3c2C(C)C)cc1OC [Example 52, (S)-2-(2-(3,4-dimethoxyphenyl)-3-isopropyl-1H-indol-5-yl)-5-(piperidin-3-yl)-1,3,4-oxadiazole] | 0.77 | 0.006 | 0.026
CN[C@@H](C)c1nnc(-c2ccc3[nH]c(-c4ccc(OC)c(OC)c4)c(C(C)C)c3c2)o1 [Example 49, (S)-1-(5-(2-(3,4-dimethoxyphenyl)-3-isopropyl-1H-indol-5-yl)-1,3,4-oxadiazol-2-yl)-N-methylethan-1-amine] | 11.5 | 0.011 | 0.169
COc1ccc(-c2[nH]c3ccc(-c4nnc(CNCCOC(C)C)o4)cc3c2C(C)C)cc1OC [Example 114, N-((5-(2-(3,4-dimethoxyphenyl)-3-isopropyl-1H-indol-5-yl)-1,3,4-oxadiazol-2-yl)methyl)-2-isopropoxyethan-1-amine] | > 50 | 0.53 | 0.386
CC(C)c1c(-c2ccnc3[nH]ncc23)[nH]c2ccc(-c3nc(C(=O)N4CCCN(C)CC4)co3)cc12 [Example 233, (2-(3-isopropyl-2-(1H-pyrazolo[3,4-b]pyridin-4-yl)-1H-indol-5-yl)oxazol-4-yl)(4-methyl-1,4-diazepan-1-yl)methanone] | 2.08 | 0.0025 | 0.195
Cc1cc(-c2[nH]c3ccc(-c4nnc(CCN5CCCCC5)o4)cc3c2C(C)C)ccn1 [Example 260, 2-(3-isopropyl-2-(2-methylpyridin-4-yl)-1H-indol-5-yl)-5-(2-(piperidin-1-yl)ethyl)-1,3,4-oxadiazole] | 1.23 | 0.0022 | 0.133
COc1ccc(-c2[nH]c3ccc(-c4cccc(C(=O)N5CCN(C6CCN(C)CC6)CC5)c4)cc3c2CC(F)(F)F)cc1OC [Example 37, (3-(2-(3,4-dimethoxyphenyl)-3-(2,2,2-trifluoroethyl)-1H-indol-5-yl)phenyl)(4-(1-methylpiperidin-4-yl)piperazin-1-yl)methanone] | 2.32 | 0.139 | 0.405
COc1ccc(-c2[nH]c3ccc(-c4nnc(CN5CCN(C(C)=O)CC5)o4)cc3c2C(C)C)cc1OC [Example 116, 1-(4-((5-(2-(3,4-dimethoxyphenyl)-3-isopropyl-1H-indol-5-yl)-1,3,4-oxadiazol-2-yl)methyl)piperazin-1-yl)ethan-1-one] | > 50 | 0.395 | 0.331

Other lines, results leading:

IC50 (human TLR9) [µM] | IC50 (human TLR8) [µM] | IC50 (human TLR7) [µM] | SMILES
21.1 | 0.018 | 0.011 | Cc1cc(-c2[nH]c3ccc(-c4cnc(N)cn4)cc3c2C(C)C)cc(C)n1 [Example 307, 5-(2-(2,6-dimethylpyridin-4-yl)-3-isopropyl-1H-indol-5-yl)pyrazin-2-amine]
0.752 | 0.0024 | 0.03 | Cc1cc(-c2[nH]c3ccc(-c4nnc([C@@H]5CCC[C@@H]5N)o4)cc3c2C(C)C)ccn1 [Example 267, (1S,2R)-2-(5-(3-isopropyl-2-(2-methylpyridin-4-yl)-1H-indol-5-yl)-1,3,4-oxadiazol-2-yl)cyclopentan-1-amine]
0.824 | 0.0055 | 0.074 | Cc1cc(-c2[nH]c3ccc(-c4ccnc(N5CCN(C)CC5)c4)cc3c2C(C)C)ccn1 [Example 269, 3-isopropyl-5-(2-(4-methylpiperazin-1-yl)pyridin-4-yl)-2-(2-methylpyridin-4-yl)-1H-indole]
5.89 | 0.06 | 0.286 | Cc1cc(-c2[nH]c3ccc(-c4nnc(CCc5cccnc5)o4)cc3c2C(C)C)ccn1 [Example 262, 2-(3-isopropyl-2-(2-methylpyridin-4-yl)-1H-indol-5-yl)-5-(2-(pyridin-3-yl)ethyl)-1,3,4-oxadiazole]
> 50 | 0.356 | 3.29 | CCc1c(-c2ccc(OC)c(OC)c2)[nH]c2ccc(-c3noc(C4CC(=O)N(C)C4)n3)cc12 (stereo not drawn) [Example 441, 4-(3-(2-(3,4-dimethoxyphenyl)-3-ethyl-1H-indol-5-yl)-1,2,4-oxadiazol-5-yl)-1-methylpyrrolidin-2-one]
2.3 | 0.064 | 2.11 | COc1ccc(-c2[nH]c3ccc(-c4cccc(N5CCN(C)CC5)c4)cc3c2C(C)C)cc1OC [Example 369, 2-(3,4-dimethoxyphenyl)-3-isopropyl-5-(3-(4-methylpiperazin-1-yl)phenyl)-1H-indole]
15.9 | 0.027 | 2.22 | CCc1c(-c2ccnc(C)c2)[nH]c2ccc(-c3noc([C@H]4CCNC4)n3)cc12 [Example 455, (S)-3-(3-ethyl-2-(2-methylpyridin-4-yl)-1H-indol-5-yl)-5-(pyrrolidin-3-yl)-1,2,4-oxadiazole]
0.206 | 0.03 | 0.048 | Cc1cc(-c2[nH]c3ccc(-c4nnc(C5CCCN(C(C)C)C5)o4)cc3c2CC(F)F)cc(C)n1 (stereo not drawn) [Example 328, 2-(3-(2,2-difluoroethyl)-2-(2,6-dimethylpyridin-4-yl)-1H-indol-5-yl)-5-(1-isopropylpiperidin-3-yl)-1,3,4-oxadiazole]
0.945 | 0.0049 | 0.0052 | CNCC(=O)N1CCc2cc(-c3ccc4[nH]c(-c5cc(C)nc(C)c5)c(C(C)C)c4c3)sc2C1 [Example 331, 1-(2-(2-(2,6-dimethylpyridin-4-yl)-3-isopropyl-1H-indol-5-yl)-4,7-dihydrothieno[2,3-c]pyridin-6(5H)-yl)-2-(methylamino)ethan-1-one]
3.65 | 0.241 | 1.55 | COc1ccc(-c2[nH]c3ccc(-c4cnc(N5CCN(C6CCCC6)CC5)nc4)cc3c2C(C)C)cc1OC [Example 435, 5-(2-(4-cyclopentylpiperazin-1-yl)pyrimidin-5-yl)-2-(3,4-dimethoxyphenyl)-3-isopropyl-1H-indole]
0.666 | 0.011 | 0.06 | COc1ccc(-c2[nH]c3ccc(-c4ccc(N5CCN(C(C)C)CC5)nc4)cc3c2C(C)C)cc1OC [Example 393, 2-(3,4-dimethoxyphenyl)-3-isopropyl-5-(6-(4-isopropylpiperazin-1-yl)pyridin-3-yl)-1H-indole]
10.2 | 0.176 | 0.894 | COc1ccc(-c2[nH]c3ccc(-c4cccc(N5CCN(CC(C)C)CC5)c4)cc3c2C(C)C)cc1OC [Example 371, 2-(3,4-dimethoxyphenyl)-5-(3-(4-isobutylpiperazin-1-yl)phenyl)-3-isopropyl-1H-indole]
0.322 | 0.01 | 0.013 | Cc1cc(-c2[nH]c3ccc(-c4nnc(C5CCCNC5)[nH]4)cc3c2C(C)C)cc(C)n1 (stereo not drawn) [Example 323, 2-(2,6-dimethylpyridin-4-yl)-3-isopropyl-5-(5-(piperidin-3-yl)-4H-1,2,4-triazol-3-yl)-1H-indole]
0.281 | 0.0019 | 0.0063 | Cc1cc(-c2[nH]c3ccc(-c4nnc(CCCN(C)C)o4)cc3c2C(C)C)cc(C)n1 [Example 271, 3-(5-(2-(2,6-dimethylpyridin-4-yl)-3-isopropyl-1H-indol-5-yl)-1,3,4-oxadiazol-2-yl)-N,N-dimethylpropan-1-amine]
> 50 | 0.056 | 2.59 | CC(C)c1c(-c2ccnc3[nH]ncc23)[nH]c2ccc(-c3cccc4cnccc34)cc12 [Example 470, 5-(3-isopropyl-2-(1H-pyrazolo[3,4-b]pyridin-4-yl)-1H-indol-5-yl)isoquinoline]
